{
  "source": "patent US20260344665A1",
  "about": "“FUNGICIDAL COMPOUND” (priority 2022, published 2026)",
  "key": {"[1]": {"system": "Blumeria graminis f.sp. tritici", "assay": "Powdery mildew assay in wheat (haustoria formation)", "format": "in vivo", "conditions": "Blumeria graminis, 48 h, read-out: haustoria formation (% relative to control)"}, "[2]": {"system": "ROS production in wheat leaf discs", "assay": "Reactive oxygen species (ROS) burst assay with wheat leaf discs", "conditions": "INA 100 μM; treated vs. control, 40 minutes"}, "[3]": {"system": "Puccinia recondita f. sp. tritici", "assay": "Leaf painting assay in wheat seedling, Puccinia recondita preventive", "format": "in vivo", "conditions": "188.00 ppm, preventive", "protocol": "(§1) Wheat seedlings of the variety Riband (for Zymoseptoria tritici trials) or variety Arina (for Puccinia recondite trials) were grown in the glasshouse until 14d after seeding. At this time, such seedlings usually have a first leaf fully emerged (designated L1), a second leaf fully emerged (L2) and a third leaf (L3) that is partially emerged and in the process of development. Using a permanent pen, two dots were applied on the second leaf such as to generate three segments of roughly equal size: Segment A (at the base), segment B (middle part) and segment C (tip of the leaf). A stock solution of the compound of Formula (I) was produced in water and of benzovindiflupyr in DMSO at a concentration of 10,000 ppm. […] The diluted compound was applied to the middle segment of L2 using a conventional cotton stick; the cotton stick was soaked in the diluted compound and rubbed several times on the adaxial leaf surface between the two marks. One day later, the complete plant was inoculated with a fungal spore suspension using a paint brush. The spore suspension was applied until before run-off.\nFor infection with Puccinia recondita (preventive): The test plants were inoculated by spraying them with a spore suspension one day after application (spore suspension at 80,000 spores per ml in water supplemented with Tween20 at 0.1%). After an incubation period of 1 day at 20 °C and 95% rh, the inoculated test plants were kept at 20 °C and 60% rh in a greenhouse.\n(§2) The three segments of the leaf were evaluated individually."}, "[4]": {"system": "Zymoseptoria tritici", "assay": "Leaf painting assay in wheat seedling, Zymoseptoria tritici preventive", "format": "in vivo", "conditions": "Experiment 1; 188.00 ppm; tip segment; preventive", "protocol": "as §1\nFor infection with Zymoseptoria tritici (preventive), the test plants were inoculated by spraying a spore suspension on them one day after application (1.5 Mio spores per ml in water supplemented with 0.01% Tween20). After an incubation period of 4 days at 22 °C/21 °C (day/night) and 95% rh, the inoculated test plants were kept at 22 °C/21 °C (day/night) and 70% rh in a greenhouse.\nas §2"}, "[5]": {"system": "Puccinia recondita", "assay": "Mixture with malonomicin, leaf disc, Puccinia recondita preventive", "format": "in vivo", "text": "(§3) An additional ingredient having pesticidal activity, for instance fungicidal activity may result in an unexpected synergistic activity. […] The action to be expected E for a given active ingredient combination obeys the so-called COLBY formula and can be calculated as follows (COLBY, S. R. “Calculating synergistic and antagonistic responses of herbicide combination”. Weeds, Vol. 15, pages 20-22; 1967): • ppm=milligrams of active ingredient (=a.i.) per liter of spray mixture • X=% action by active ingredient A) using p ppm of active ingredient • Y=% action by active ingredient B) using q ppm of active ingredient.\n(§4) According to COLBY, the expected (additive) action of active ingredients A)+B) using p+q ppm of active ingredient is:\n(§5) In mathematical terms, synergism corresponds to a positive value for the difference of (O-E). In the case of purely complementary addition of activities (expected activity), said difference (O-E) is zero. A negative value of said difference (O-E) signals a loss of activity compared to the expected activity.\n(§6) A stock solution for oligosaccharide compound according to the present invention was produced in water plus 0.025% Tween®20. Malonomicin was produced according to Law et al, 2018 (Nature Catalys is | VOL 1 | DECEMBER 2018 | 977-984). A stock solution of malonomicin was produced in water plus 0.025% Tween®20.\n(§7) Assays to test efficacy of mixtures of the compound of Formula (I) in combination with malonomicin on the control of fungal pathogens in a leaf disc assay were designed for two 24 well plates.\n(§8) Table 8 and 9: Outline of 24 well testplate (1) and testplate (2) including concentration of compounds sprayed per well. The upper number in the cell indicates the oligosaccharide compound of the present invention concentration (ppm), the lower number malonomicin concentration (ppm). Column (1) holds a dilution series of compound of Formula (I), row (2-D) hold a dilution series of malonomicin. Well 2-D-(1) represents an untreated check. This design was applied for tests including Puccinia recondita (EPPO code: PUCCRE) with preventive and curative spray timing.\nA first set of master plates with 1× concentrated spray solution of the compound of Formula (I) stock diluted in water with concentrations according to Table 8, Table 9, Table 11 and Table 12, respectively, was prepared. Each well contained 0.025% Tween®20. Accordingly, a second set of master plates with 1× concentrated malonomicin stock diluted in water was prepared. Each well of the second set contained 0.025% Tween®20. Leaf segments placed on agar in 24 well plates are sprayed with 8 ul of solution from the master plate containing compound of Formula (I) and the leaf segments were let to dry, followed 2 hours later by 8 ul of solution from the master plate containing malonomicin. After second sprays have dried, leaf segments are infected with fungal spores to obtain a preventive application timing. Alternatively, leaf segments infected one day before spray of the compounds are used, resulting in a curative spray timing. […] For each leaf segment percent leaf coverage of disease symptoms was assessed. Percent leaf coverage reduction relative to the untreated check was calculated. […]\nWheat (cultivar Kanzler) leaf segments are placed on agar in multiwell plates (24-well format) and sprayed with test solutions (8 ul per well). […] After appropriate incubation the activity of a compound is assessed 8 dpi (days after inoculation) as preventive fungicidal activity."}, "[6]": {"system": "Puccinia recondita", "assay": "Mixture with malonomicin, leaf disc, Puccinia recondita curative", "format": "in vivo", "conditions": "foliar, 192 h, read-out: control of fungal growth", "text": "as §3, §4, §5, §6, §7, §8\n(§9) A first set of master plates with 1× concentrated spray solution of the compound of Formula (I) stock diluted in water with concentrations according to Table 8, Table 9, Table 11 and Table 12, respectively, was prepared. Each well contained 0.025% Tween®20. Accordingly, a second set of master plates with 1× concentrated malonomicin stock diluted in water was prepared. Each well of the second set contained 0.025% Tween®20. Leaf segments placed on agar in 24 well plates are sprayed with 8 ul of solution from the master plate containing compound of Formula (I) and the leaf segments were let to dry, followed 2 hours later by 8 ul of solution from the master plate containing malonomicin. After second sprays have dried, leaf segments are infected with fungal spores to obtain a preventive application timing. Alternatively, leaf segments infected one day before spray of the compounds are used, resulting in a curative spray timing. In addition, several plates were produced where leaf segments were sprayed 2× in absence of test compound (with only Tween®20), representing the untreated check samples. For each leaf segment percent leaf coverage of disease symptoms was assessed. Percent leaf coverage reduction relative to the untreated check was calculated. Efficacy of the mixtures was tested in duplicate and on different fungal species. Reported efficacy values are the average of two replicate results.\nPuccinia recondita (EPPO Code: PUCCRE) with Curative Spray Timing.\nWheat (cultivar Kanzler) leaf segments are placed on agar in multiwell plates (24-well format). The leaf disks are then inoculated with a spore suspension of the fungus. One day after inoculation the test solution is sprayed (8 ul per well). After appropriate incubation the activity of a compound is assessed 8 dpi (days after inoculation) as curative fungicidal activity"}, "[7]": {"system": "Blumeria graminis f.sp. tritici", "assay": "Mixture with malonomicin, leaf disc, Blumeria graminis f.sp. tritici preventive", "format": "in vivo", "conditions": "foliar, 168 h, read-out: control of fungal growth", "text": "as §6, §7\n(§10) Table 11 and Table 12: Outline of 24 well testplate (3) and testplate (4) including concentration of compounds per well. The upper number in the cell indicates the oligosaccharide compound of the present invention concentration (ppm), the lower number malonomicin concentration (ppm). Column (1) holds a dilution series of compound of Formula (I), row (4-D) hold a dilution series of malonomicin. Well 4-D-(1) represents an untreated check. This design was applied for tests including Blumeria graminis f.sp. tritici (EPPO code: ERYSGT) with preventive spray timing and Parastagonospora nodorum (EPPO code: LEPTNO) with preventive spray timing.\nas §9\nBlumeria graminis f.sp. tritici (EPPO Code: ERYSGT) with Preventive Spray Timing\n(§11) Wheat (cultivar Kanzler) leaf segments are placed on agar in multiwell plates (24-well format) and sprayed with test solutions (8 ul per well). After drying, the leaf disks are inoculated with spores of the fungus. After appropriate incubation the activity of a compound is assessed 7 dpi (days post inoculation) as preventive fungicidal activity."}, "[8]": {"system": "Parastagonospora nodorum", "assay": "Mixture with malonomicin, leaf disc, Parastagonospora nodorum preventive", "format": "in vivo", "text": "as §6, §7, §10, §9\nParastagonospora nodorum (EPPO Code: LEPTNO)\nas §11, with “a spore suspension” for “spores”, “4” for “7”, “after” for “post”"}},
  "data": [
    {"compound": "O=C(O)c1cc(Cl)nc(Cl)c1", "note": "[INA, 2.6-dichloro-isonicotinic acid, reference compound]", "values": [
      {"measurement": "activity at 100 µM", "setting": "[1]", "value": 27.6, "unit": "%"},
      {"measurement": "Fold change (peak ROS)", "setting": "[2]", "value": 1.8}
    ]},
    {"compound": "Cn1cc(C(=O)Nc2cccc3c2C2CCC3C2=C(Cl)Cl)c(C(F)F)n1", "note": "(centres unmarked) [benzovindiflupyr, reference compound]", "values": [
      {"measurement": "% reduction fungal growth", "setting": "[3]; Experiment 2, base segment", "value": 7, "unit": "%"},
      {"measurement": "% reduction fungal growth", "setting": "[3]; Experiment 2, middle segment (treated)", "value": 100, "unit": "%"},
      {"measurement": "% reduction fungal growth", "setting": "[3]; Experiment 2, tip segment", "value": 100, "unit": "%"},
      {"measurement": "% reduction fungal growth", "setting": "[3]; Experiment 3, base segment", "value": 21, "unit": "%"},
      {"measurement": "% reduction fungal growth", "setting": "[3]; Experiment 3, middle segment (treated)", "value": 100, "unit": "%"},
      {"measurement": "% reduction fungal growth", "setting": "[3]; Experiment 3, tip segment", "value": 100, "unit": "%"},
      {"measurement": "% reduction fungal growth", "setting": "[3]; Experiment 4, base segment", "value": 3, "unit": "%"},
      {"measurement": "% reduction fungal growth", "setting": "[3]; Experiment 4, middle segment (treated)", "value": 100, "unit": "%"},
      {"measurement": "% reduction fungal growth", "setting": "[3]; Experiment 4, tip segment", "value": 100, "unit": "%"},
      {"measurement": "% reduction fungal growth", "setting": "[4]", "value": 99, "unit": "%"}
    ]},
    {"compound": "NC[C@@H]1NC(=O)C(C(=O)CC(NC(=O)[C@@H](N)CO)(C(=O)O)C(=O)O)=C1O", "note": "[malonomicin, {[(2S)-2-amino-3-hydroxypropanoyl]amino} {2-[(5S)-5-(aminomethyl)-4-hydroxy-2-oxo-2,5-dihydro-1H-pyrrol-3-yl]-2-oxoethyl} malonic acid, reference compound]", "values": [
      {"measurement": "control of fungal growth", "setting": "[5]; malonomicin 0.74 ppm solo", "value": 0, "unit": "%"},
      {"measurement": "control of fungal growth", "setting": "[5]; malonomicin 2.22 ppm solo", "value": 10, "unit": "%"},
      {"measurement": "control of fungal growth", "setting": "[5]; malonomicin 6.67 ppm solo", "value": 80, "unit": "%"},
      {"measurement": "control of fungal growth", "setting": "[5]; malonomicin 20 ppm solo", "value": 100, "unit": "%"},
      {"measurement": "control of fungal growth", "setting": "[5]; malonomicin 200 ppm solo", "value": 100, "unit": "%"},
      {"measurement": "inhibition of growth at 0.74 µg/mL", "setting": "[6]; malonomicin 0.74 ppm solo", "value": 35, "unit": "%"},
      {"measurement": "inhibition of growth at 2.22 µg/mL", "setting": "[6]; malonomicin 2.22 ppm solo", "value": 70, "unit": "%"},
      {"measurement": "inhibition of growth at 6.67 µg/mL", "setting": "[6]; malonomicin 6.67 ppm solo", "value": 100, "unit": "%"},
      {"measurement": "inhibition of growth at 20 µg/mL", "setting": "[6]; malonomicin 20 ppm solo", "value": 100, "unit": "%"},
      {"measurement": "inhibition of growth at 200 µg/mL", "setting": "[6]; malonomicin 200 ppm solo", "value": 100, "unit": "%"},
      {"measurement": "inhibition of growth at 7.4 µg/mL", "setting": "[7]; malonomicin 7.4 ppm solo", "value": 0, "unit": "%"},
      {"measurement": "inhibition of growth at 22.2 µg/mL", "setting": "[7]; malonomicin 22.2 ppm solo", "value": 0, "unit": "%"},
      {"measurement": "inhibition of growth at 66.7 µg/mL", "setting": "[7]; malonomicin 66.7 ppm solo", "value": 70, "unit": "%"},
      {"measurement": "inhibition of growth at 200 µg/mL", "setting": "[7]; malonomicin 200 ppm solo", "value": 100, "unit": "%"},
      {"measurement": "inhibition of growth at 600 µg/mL", "setting": "[7]; malonomicin 600 ppm solo", "value": 75, "unit": "%"},
      {"measurement": "control of fungal growth", "setting": "[8]; malonomicin 7.4 ppm solo", "value": 0, "unit": "%"},
      {"measurement": "control of fungal growth", "setting": "[8]; malonomicin 22.2 ppm solo", "value": 45, "unit": "%"},
      {"measurement": "control of fungal growth", "setting": "[8]; malonomicin 66.7 ppm solo", "value": 50, "unit": "%"},
      {"measurement": "control of fungal growth", "setting": "[8]; malonomicin 200 ppm solo", "value": 90, "unit": "%"},
      {"measurement": "control of fungal growth", "setting": "[8]; malonomicin 600 ppm solo", "value": 95, "unit": "%"}
    ]}
  ]
}
